In patent publication US12503452B2 (Curza Global, LLC, priority 2019, dated 2025):
Structures can show the parent of a compound that is named as a salt. Where two headings read alike, the source gives them in different places.

Assays:
P. aeruginosa (Pa) = test: Broth microdilution minimum inhibitory concentration (MIC); format: cell-based; conditions: Pseudomonas aeruginosa, read-out: Pa MIC + bicarb
Protocol: (§1) A certified BSL-2 laboratory was used for testing. Compounds were evaluated using the broth microdilution minimum inhibitory concentration (MIC) and minimum bactericidal concentration (MBC) assays defined by Clinical and Laboratory Standards Institute (CLSI) in the M26-A guideline against S. aureus (Sa), E. coli (Ec), K. pneumoniae (Kp), A. baumannii (Ab), E. faecalis (Ef) and P. aeruginosa (Pa).
(§2) MICs were determined using the Clinical Laboratory and Standards Institute (CLSI) Broth Microdilution Method with slight modification. Clinical and Laboratory Standards Institute (2012). “Methods for dilution antimicrobial susceptibility tests for bacteria that grow aerobically; approved standard, 9th ed. M07-A9. Clinical and Laboratory Standards Institute, Wayne, PA” Serial two-fold dilutions of compounds are prepared in sterile clear round-bottom 96-well plates.
(§3) To prepare microdilution trays, two-fold dilutions of antimicrobial agent are prepared in growth medium: Cation-Adjusted Mueller-Hinton Broth (CAMHB), or CAMHB supplemented with sodium bicarbonate (6.25 or 25 mM final concentration prepared from a 1.0M stock solution) or CAMHB supplemented with heat inactivated human serum (Fisher Cat. #BP2657100) 0-50% by adding 200 μL of the highest concentration to be tested (64 μg/mL, for example) in row A, mixing and transferring 100 μL from row A to 100 μL growth medium in row B, then repeating the mixing and transferring through row H of the 96-well plate, discarding the excess 100 μL remaining. This slight modification to the CLSI protocol enables evaluation of MICs for 3 compounds per plate in triplicate, albeit with only 8 compound dilutions (CLSI protocol enables 2 compounds in triplicate with 10 dilutions). Bacterial suspensions are added to a final concentration of 5×10^4 CFU/well by adding 5 μL of a 1:10 dilution of a 0.5 McFarland suspension (1×10^8 CFU/mL) for each bacterium evaluated. Bacterial suspensions were prepared using the growth method described by CLSI. Well-isolated colonies (3-5 from an agar plate) were selected using a sterile loop and used to inoculate a tube containing 4 mL of CAMHB. The cultures are incubated at 35±2° C. until it achieves or exceeds the turbidity of the 0.5 McFarland standard, determined by measuring A600nm (usually two to six hours). When growth exceeds a 0.5 McFarland standard, the turbidity is adjusted with broth to be equivalent to a 0.5 McFarland standard.

E. coli (Ec) = test: as above; format: cell-based; conditions: Escherichia coli, read-out: E. coli + bicarb MIC
Protocol: as §1, §2, §3

S. aureus (Sa) = test: as above; format: cell-based; conditions: Staphylococcus aureus, read-out: Sa + bicarb MIC
Protocol: as §1, §2, §3

E. faecalis (Ef) = test: as above; format: cell-based; conditions: Enterococcus faecalis, read-out: Ef + bicarb MIC
Protocol: as §1, §2, §3

A. baumannii (Ab) = test: as above; format: cell-based; conditions: Acinetobacter baumannii, read-out: Ab + bicarb MIC
Protocol: as §1, §2, §3

[1] = tested on: E. coli S30 extract (bacterial protein synthesis); test: E. coli S30 extract coupled transcription-translation luciferase assay (inhibition of bacterial protein synthesis); format: biochemical; conditions: read-out: S30 IC50 (μM/% inhib.)
Outline: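 Luminescent read-out of luciferase made from pBESTluc DNA by E. coli S30 extract after 1 h at 37 °C with compound in an 8-point 2-fold series. Background came from no-DNA reactions. Percent inhibition was calculated against water-only controls.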

[2] = target: Rabbit Reticulocyte Lysate (eukaryotic protein synthesis); test: Rabbit reticulocyte lysate luciferase assay (inhibition of eukaryotic protein synthesis); format: biochemical; conditions: read-out: Rabbit reticulocyte IC50 (μM/% inhib.)
Outline: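 Compounds were tested in 8-point 2-fold dilution series for blocking luciferase synthesis in nuclease-treated rabbit reticulocyte lysate (30° C., 90 minutes). Luminescence read-out, corrected by no-RNA background, was expressed as % inhibition against water-only reactions.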

[3] = class by IC50 or % inhibition @ 1 μM
[4] = P. aeruginosa, growth medium supplemented with sodium bicarbonate
[5] = E. coli, growth medium supplemented with sodium bicarbonate
[6] = S. aureus, growth medium supplemented with sodium bicarbonate
[7] = E. faecalis, growth medium supplemented with sodium bicarbonate
[8] = A. baumannii, growth medium supplemented with sodium bicarbonate
[9] = E. faecalis, growth medium with sodium bicarbonate
[10] = A. baumannii, growth medium with sodium bicarbonate
[11] = P. aeruginosa, growth medium with sodium bicarbonate
[12] = E. coli, growth medium with sodium bicarbonate

SMILES	IC50 [1, 3] [µM]	IC50 [2, 3] [µM]	MIC (P. aeruginosa (Pa); [4]) [µg/mL]	MIC (E. coli (Ec); [5]) [µg/mL]	MIC (E. faecalis (Ef); [7]) [µg/mL]	MIC (A. baumannii (Ab); [8]) [µg/mL]	other results
CC(C)(N)C(=O)N1CCN(C(=O)Nc2ccn(-c3ccc(CNC4CCC[C@@H](N)C4)cc3)c(=O)n2)CC1 (mixture of isomers) [Compound 320, hydrochloride salt]	< 0.5	> 1					MIC (P. aeruginosa (Pa)): > 32 µg/mL; MIC (E. coli (Ec)): < 8 µg/mL; MIC (S. aureus (Sa)): 8 to 32 µg/mL; MIC (E. faecalis (Ef)): > 32 µg/mL; MIC (A. baumannii (Ab)): > 32 µg/mL
CC(Cc1ccc(-n2ccc(NC(=O)N3CCN(C(=O)C(C)(C)N)CC3)nc2=O)cc1)NC[C@@H]1CCC[C@@H](N)C1 (mixture of isomers) [Compound 155]	> 1	> 1	> 32	< 8	> 32	> 32	MIC (S. aureus (Sa); [6]): 8 to 32 µg/mL
C[C@H]1CN(Cc2ccc(-n3ccc(NC(=O)N4CCN(C(=O)C(C)(C)N)CC4)nc3=O)cc2)CC[C@H]1N (stereo in doubt) [Compound 297, hydrochloride salt]	0.5 to 1	> 1					MIC (P. aeruginosa (Pa)): > 32 µg/mL; MIC (E. coli (Ec)): < 8 µg/mL; MIC (S. aureus (Sa)): < 8 µg/mL; MIC (E. faecalis (Ef)): 8 to 32 µg/mL
C[C@](N)(CO)C(=O)N1CCN(C(=O)Nc2ccn(-c3ccc(CCN4CCC[C@@H](N)C4)cc3)c(=O)n2)CC1 [Compound 12]	0.5 to 1	> 1	> 32	> 32		> 32	
CC(N)C1CCCN(CCc2ccc(-n3ccc(NC(=O)N4CCN(C(=O)C(C)(C)N)CC4)nc3=O)cc2)C1 (stereo not drawn) [Compound 22]	< 0.5	> 1	> 32	< 8			MIC (S. aureus (Sa); [6]): < 8 µg/mL
C[C@@H]1CN(CCc2ccc(-n3ccc(NC(=O)N4CCN(C(=O)C(C)(C)N)CC4)nc3=O)cc2)CC[C@H]1N [Compound 41]	< 0.5	> 1			8 to 32	> 32	
CC(N)[C@H]1CCN(CCc2ccc(-n3ccc(NC(=O)N4CCN(C(=O)C(C)(C)N)CC4)nc3=O)cc2)C1 (stereo partly drawn) [Compound 42]	< 0.5	> 1	8 to 32	< 8	8 to 32	> 32	
CC(N)[C@@H]1CCN(CCc2ccc(-n3ccc(NC(=O)N4CCN(C(=O)C(C)(C)N)CC4)nc3=O)cc2)C1 (stereo partly drawn) [Compound 43]	< 0.5	> 1	8 to 32	< 8	8 to 32	> 32	
CC(N)[C@@H]1CCN(Cc2ccc(-n3ccc(NC(=O)N4CCN(C(=O)C(C)(C)N)CC4)nc3=O)cc2)C1 (stereo partly drawn) [Compound 44]	< 0.5	> 1			< 8	> 32	
CC(N)[C@H]1CCN(Cc2ccc(-n3ccc(NC(=O)N4CCN(C(=O)C(C)(C)N)CC4)nc3=O)cc2)C1 (stereo partly drawn) [Compound 45]	< 0.5	> 1			< 8	> 32	
NC1CCN(Cc2ccc(-n3ccc(NC(=O)N4CC(N)C4)nc3=O)cc2)CC1 [Compound 49]	> 1	> 1	> 32	> 32		> 32	
CC(C)(N)C(=O)N1CCN(C(=O)Nc2ccn(-c3ccc(CN4CCC(N)CC4)cc3)c(=O)n2)C(c2ccccc2)C1 (stereo not drawn) [Compound 59]	> 1	> 1	> 32	> 32		> 32	
CC(C)(N)C(=O)N1C2COCC1CN(C(=O)Nc1ccn(-c3ccc(CN4CCC(N)CC4)cc3)c(=O)n1)C2 [Compound 68]	0.5 to 1	> 1	> 32	< 8			MIC (S. aureus (Sa); [6]): > 32 µg/mL
C[C@@H]1CN(C(=O)Nc2ccn(-c3ccc(CN4CCC(N)CC4)cc3)c(=O)n2)[C@@H](C)CN1C(=O)C(C)(C)N [Compound 74]		> 1	> 32	> 32		> 32	
CC(C)(N)C(=O)N1CC2COCC(C1)N2C(=O)Nc1ccn(-c2ccc(CN3CCC(N)CC3)cc2)c(=O)n1 [Compound 85]	> 1	> 1	> 32	< 8			MIC (S. aureus (Sa); [6]): > 32 µg/mL
C[C@@H]1CN(C(=O)[C@@](C)(N)CO)CCN1C(=O)Nc1ccn(-c2ccc(CN3CCC(N)CC3)cc2)c(=O)n1 [Compound 89]	< 0.5	> 1			> 32	> 32	
Cc1cc(-n2ccc(NC(=O)N3CCN(C(=O)C(C)(C)N)CC3)nc2=O)ccc1CN1CCC(N)CC1 [Compound 91]	< 0.5	> 1	> 32	< 8	< 8	> 32	
CNC(C)(C)C(=O)N1CCN(C(=O)Nc2ccn(-c3ccc(CN4CCC(N)CC4)cc3)c(=O)n2)CC1 [Compound 96]	> 1	> 1	> 32	< 8			MIC (S. aureus (Sa); [6]): < 8 µg/mL
C[C@](N)(CO)C(=O)N1CCN(C(=O)Nc2ccn(-c3ccc(CN4CCC(N)CC4)c(Cl)c3)c(=O)n2)CC1 [Compound 98]	< 0.5	> 1	> 32	< 8			MIC (S. aureus (Sa); [6]): < 8 µg/mL
CC(N)C1CCCN(Cc2ccc(-n3ccc(NC(=O)N4CCN(C(=O)C(C)(C)N)CC4)nc3=O)cc2)C1 (stereo not drawn) [Compound 109]	< 0.5	> 1	> 32	< 8			MIC (S. aureus (Sa); [6]): < 8 µg/mL
CC(C)(N)C(=O)N1CCN(C(=O)Nc2ccn(-c3ccc(CN4CC(CN)C4)cc3)c(=O)n2)CC1 [Compound 133]	< 0.5	> 1			> 32	> 32	
CC(C)(N)C(=O)N1CCN(C(=O)Nc2ccn(-c3ccc(CN4CC(CCN)C4)cc3)c(=O)n2)CC1 [Compound 134]	< 0.5	> 1	> 32	< 8	8 to 32	> 32	
CC(N)C1CCN(CCc2ccc(-n3ccc(NC(=O)N4CCN(C(=O)C(C)(C)N)CC4)nc3=O)cc2)CC1 (stereo not drawn) [Compound 168]	< 0.5	> 1					MIC (E. faecalis (Ef); [9]): 8 to 32 µg/mL; MIC (A. baumannii (Ab); [10]): > 32 µg/mL
CC1CN(Cc2ccc(-n3ccc(NC(=O)N4CCN(C(=O)[C@@](C)(N)CO)CC4)nc3=O)cc2)CCC1N (stereo partly drawn) [Compound 223]	0.5 to 1	> 1					MIC (P. aeruginosa (Pa); [11]): > 32 µg/mL; MIC (E. coli (Ec); [12]): < 8 µg/mL; MIC (E. faecalis (Ef); [9]): < 8 µg/mL; MIC (A. baumannii (Ab); [10]): > 32 µg/mL
C[C@](N)(CO)C(=O)N1CCN(C(=O)Nc2ccn(-c3ccc(CCN4CCC(NC(=N)N)CC4)cc3)c(=O)n2)CC1 [Compound 349, hydrochloride salt]							MIC (E. coli (Ec)): < 8 µg/mL; MIC (S. aureus (Sa)): 8 to 32 µg/mL; IC50 ([1]; % inhibition @ 1 μM): < 0.5 µM; IC50 ([2]; % inhibition @ 1 μM): 0.5 to 1 µM
CC(C)(N)C(=O)N1CCN(C(=O)Nc2ccn(-c3ccc(CNCC4(O)CNC4)cc3)c(=O)n2)CC1 [Compound 376]							MIC (P. aeruginosa (Pa); [11]): > 32 µg/mL; MIC (E. coli (Ec); [12]): < 8 µg/mL; MIC (A. baumannii (Ab); [10]): > 32 µg/mL; IC50 ([1]; % inhibition @ 1 μM): < 0.5 µM; IC50 ([2]; % inhibition @ 1 μM): > 1 µM
